Measured values taken from publication PMC10323144, “Garbage in, garbage out: how reliable training data improved a virtual screening approach against SARS-CoV-2 MPro” (Frontiers in Pharmacology, 2023).

What follows are compounds tested against SARS-CoV-2 MPro (Severe acute respiratory syndrome coronavirus 2, UniProt P0DTD1) (assay: MPro activity assay (de-quenching of Edans fluorescence on cleavage of a Dabcyl/Edans peptide)). Conditions: 10 μM or 25 μM compound.
Format: biochemical

SMILES	% activity MPro at 10 μM or 25 μM [%]
Oc1cc(O)c2c(c1)O[C@H](c1ccc(O)c(O)c1)[C@H](O)C2 [4b, epicatechin]	88.7 ± 0.6

Same assay, conditions: 25 μM where stated

SMILES	activity against MPro (in words)
O=C(O[C@@H]1Cc2c(O)cc(O)cc2O[C@@H]1c1ccc(O)c(O)c1)c1cc(O)c(O)c(O)c1 [5b, epicatechin gallate]	full inhibition
Oc1cc(O)c2c(c1)O[C@H](c1ccc(O)c(O)c1)[C@H](O)C2 [4b, epicatechin]	negligible activity

Same assay, conditions: 60 min pre-incubation, 5 μM substrate

SMILES	IC50 [µM]
Cc1ccc(S(=O)(=O)Nc2nc3cc(Cl)c(Oc4cccc(Cl)c4Cl)cc3[nH]2)cc1 [Cpd 31]	> 25

Same assay, conditions: in-house acquired data, internal screening under standardized conditions (128 compounds)

SMILES	Class (MPro activity class)
Cc1[nH]c(C(=O)NC2CCc3nc(NC(=O)CC(=O)O)sc3C2)c(Cl)c1Cl (centres unmarked) [Cpd 54]	0 (compounds with IC50 > 20 μM, percentage inhibition <80% at 20 µM or 50 μM, or percentage enzyme inhibition <50% at 10 µM were labelled as INACTIVE)
Nc1nc2nc(NCCCN3CCOCC3)ncc2cc1-c1c(Cl)cccc1Cl [ZVR130]	0 (compounds with IC50 > 20 μM, percentage inhibition <80% at 20 µM or 50 μM, or percentage enzyme inhibition <50% at 10 µM were labelled as INACTIVE)
Cc1cccc(C(=O)NCc2ccccc2)c1I [COV19040]	0 (compounds with IC50 > 20 μM, percentage inhibition <80% at 20 µM or 50 μM, or percentage enzyme inhibition <50% at 10 µM were labelled as INACTIVE)
CCCCN(CCCC)C(=O)c1cnc(N)o1 [ZVR-103]	0 (compounds with IC50 > 20 μM, percentage inhibition <80% at 20 µM or 50 μM, or percentage enzyme inhibition <50% at 10 µM were labelled as INACTIVE)
Cc1ccc(S(=O)(=O)Nc2nc3cc(Cl)c(Oc4cccc(Cl)c4Cl)cc3[nH]2)cc1 [Cpd 31]	0 (compounds with IC50 > 20 μM, percentage inhibition <80% at 20 µM or 50 μM, or percentage enzyme inhibition <50% at 10 µM were labelled as INACTIVE)
O=C(C1=C(O)C(=O)N(c2nc3ccc(Cl)cc3s2)C1c1ccc(F)cc1)c1ccc2c(c1)OCCO2 (centres unmarked) [ADRMC150]	0 (compounds with IC50 > 20 μM, percentage inhibition <80% at 20 µM or 50 μM, or percentage enzyme inhibition <50% at 10 µM were labelled as INACTIVE)
O=c1c2ccccc2sn1-c1ccc([N+](=O)[O-])cc1 [COV19014]	1 (Compounds with IC50 < 10 µM or with a percentage of enzyme inhibition >50% at 10 µM were labelled as ACTIVE)
Cc1ccc2nc(N3C(=O)C(O)=C(C(=O)c4ccc5c(c4)OCCO5)C3c3ccc(O)cc3)sc2c1 (centres unmarked) [AD82]	0 (compounds with IC50 > 20 μM, percentage inhibition <80% at 20 µM or 50 μM, or percentage enzyme inhibition <50% at 10 µM were labelled as INACTIVE)
O=c1c2ccccc2sn1-c1ccccc1 [COV19010]	1 (Compounds with IC50 < 10 µM or with a percentage of enzyme inhibition >50% at 10 µM were labelled as ACTIVE)
[O-][n+]1onc2ccc(C=CSc3ccc(F)cc3)cc21 [COV19501]	1 (Compounds with IC50 < 10 µM or with a percentage of enzyme inhibition >50% at 10 µM were labelled as ACTIVE)
O=S(=O)(C=Cc1ccc2nonc2c1)c1ccccc1 [COV19498]	0 (compounds with IC50 > 20 μM, percentage inhibition <80% at 20 µM or 50 μM, or percentage enzyme inhibition <50% at 10 µM were labelled as INACTIVE)
Cc1nc(N)sc1C(=O)N(Cc1ccccc1)Cc1ccccc1 [ZVR-119]	0 (compounds with IC50 > 20 μM, percentage inhibition <80% at 20 µM or 50 μM, or percentage enzyme inhibition <50% at 10 µM were labelled as INACTIVE)
COc1ccc2nc(N3C(=O)C(O)=C(C(=O)c4ccc5c(c4)OCCO5)C3c3ccc(O)c(OC)c3)sc2c1 (centres unmarked) [ADRMC156]	0 (compounds with IC50 > 20 μM, percentage inhibition <80% at 20 µM or 50 μM, or percentage enzyme inhibition <50% at 10 µM were labelled as INACTIVE)
COc1ccc(C2C(C(=O)c3ccc4c(c3)OCCO4)=C(O)C(=O)N2c2nc3ccc(OC)cc3s2)cc1 (centres unmarked) [ADKPN160]	0 (compounds with IC50 > 20 μM, percentage inhibition <80% at 20 µM or 50 μM, or percentage enzyme inhibition <50% at 10 µM were labelled as INACTIVE)
COC(=O)CC(=O)Nc1nc2c(s1)CC(NC(=O)c1[nH]c(C)c(Cl)c1Cl)CC2 (centres unmarked) [Cpd 53]	0 (compounds with IC50 > 20 μM, percentage inhibition <80% at 20 µM or 50 μM, or percentage enzyme inhibition <50% at 10 µM were labelled as INACTIVE)
CCNC(=S)NN=C(C)c1cc2ccccc2oc1=O [COV19138]	0 (compounds with IC50 > 20 μM, percentage inhibition <80% at 20 µM or 50 μM, or percentage enzyme inhibition <50% at 10 µM were labelled as INACTIVE)
O=C(O)C(=O)NC1CCc2nc(NC(=O)c3cc(Cl)c(Cl)[nH]3)sc2C1 (centres unmarked) [Cpd 51]	0 (compounds with IC50 > 20 μM, percentage inhibition <80% at 20 µM or 50 μM, or percentage enzyme inhibition <50% at 10 µM were labelled as INACTIVE)
NC1CCc2nc(NC(=O)c3cc(Cl)c(Cl)[nH]3)sc2C1 (centres unmarked) [Cpd 49]	0 (compounds with IC50 > 20 μM, percentage inhibition <80% at 20 µM or 50 μM, or percentage enzyme inhibition <50% at 10 µM were labelled as INACTIVE)

SMILES	Class (MPro activity class)
COc1ccc(C2C(C(=O)c3ccc4c(c3)OCCO4)=C(O)C(=O)N2c2nc3ccc(Cl)cc3s2)cc1OC (centres unmarked) [ADRMC157]	0 (compounds with IC50 > 20 μM, percentage inhibition <80% at 20 µM or 50 μM, or percentage enzyme inhibition <50% at 10 µM were labelled as INACTIVE)
CC(C)(C)OC(=O)N1CCC(Oc2cc(C(=O)NCC(=O)O)ccc2NC(=O)c2cc(Br)c(Br)[nH]2)CC1 [UL-DBT26]	0 (compounds with IC50 > 20 μM, percentage inhibition <80% at 20 µM or 50 μM, or percentage enzyme inhibition <50% at 10 µM were labelled as INACTIVE)
COC(=O)CN1C(=O)C(C2C(=O)OCC2c2ccccc2)C1C=Cc1ccccc1 (centres unmarked) [CMD111]	0 (compounds with IC50 > 20 μM, percentage inhibition <80% at 20 µM or 50 μM, or percentage enzyme inhibition <50% at 10 µM were labelled as INACTIVE)
COc1ccc(C(=O)C2=C(O)C(=O)N(c3nc4ccc(Cl)cc4s3)C2c2ccc(F)cc2)cc1OC (centres unmarked) [ADKPN164]	0 (compounds with IC50 > 20 μM, percentage inhibition <80% at 20 µM or 50 μM, or percentage enzyme inhibition <50% at 10 µM were labelled as INACTIVE)
Cc1ccc2nc(N3C(=O)C(O)=C(C(=O)c4ccc5c(c4)OCCO5)C3c3ccc(F)cc3)sc2c1 (centres unmarked) [ADRMC154]	0 (compounds with IC50 > 20 μM, percentage inhibition <80% at 20 µM or 50 μM, or percentage enzyme inhibition <50% at 10 µM were labelled as INACTIVE)
Cc1ccc2nc(N3C(=O)C(O)=C(C(=O)c4ccc5c(c4)OCCO5)C3c3ccccc3)sc2c1 (centres unmarked) [ADRMC151]	0 (compounds with IC50 > 20 μM, percentage inhibition <80% at 20 µM or 50 μM, or percentage enzyme inhibition <50% at 10 µM were labelled as INACTIVE)
CCOC(=O)C(=O)Nc1nc2c(s1)CC(NC(=O)c1cc(Br)c(Br)[nH]1)CC2 (centres unmarked) [Cpd 55]	0 (compounds with IC50 > 20 μM, percentage inhibition <80% at 20 µM or 50 μM, or percentage enzyme inhibition <50% at 10 µM were labelled as INACTIVE)
Cc1cccc2c(=O)n(-c3ccccc3)sc12 [COV19017]	0 (compounds with IC50 > 20 μM, percentage inhibition <80% at 20 µM or 50 μM, or percentage enzyme inhibition <50% at 10 µM were labelled as INACTIVE)
Cc1ccc(-n2sc3ccccc3c2=O)cc1 [COV19015]	1 (Compounds with IC50 < 10 µM or with a percentage of enzyme inhibition >50% at 10 µM were labelled as ACTIVE)
COc1ccc(C2C(C(=O)c3ccc4c(c3)OCCO4)=C(O)C(=O)N2c2nc3ccc(C)cc3s2)cc1 (centres unmarked) [AD81]	0 (compounds with IC50 > 20 μM, percentage inhibition <80% at 20 µM or 50 μM, or percentage enzyme inhibition <50% at 10 µM were labelled as INACTIVE)
O=C(C1=C(O)C(=O)N(c2nc3ccccc3s2)C1c1ccc(F)cc1)c1ccc2c(c1)OCCO2 (centres unmarked) [ADKPN161]	0 (compounds with IC50 > 20 μM, percentage inhibition <80% at 20 µM or 50 μM, or percentage enzyme inhibition <50% at 10 µM were labelled as INACTIVE)
CCN(CC)c1ccc(-c2ccc(C(=O)OC)cc2)cc1 [Mal1]	0 (compounds with IC50 > 20 μM, percentage inhibition <80% at 20 µM or 50 μM, or percentage enzyme inhibition <50% at 10 µM were labelled as INACTIVE)
Nc1ncc2cc(-c3ccc4c(c3)OCO4)c(N)nc2n1 [ZVR108]	0 (compounds with IC50 > 20 μM, percentage inhibition <80% at 20 µM or 50 μM, or percentage enzyme inhibition <50% at 10 µM were labelled as INACTIVE)
CCCN1C(=O)C(O)=C(C(=O)c2ccccc2)C1c1ccccc1 (centres unmarked) [AD85]	0 (compounds with IC50 > 20 μM, percentage inhibition <80% at 20 µM or 50 μM, or percentage enzyme inhibition <50% at 10 µM were labelled as INACTIVE)
CC(=NNC(N)=S)c1c(O)c2ccccc2oc1=O [COV19140]	0 (compounds with IC50 > 20 μM, percentage inhibition <80% at 20 µM or 50 μM, or percentage enzyme inhibition <50% at 10 µM were labelled as INACTIVE)
O=S(=O)(C=Cc1ccc2no[n+]([O-])c2c1)c1ccccc1 [COV19497]	1 (Compounds with IC50 < 10 µM or with a percentage of enzyme inhibition >50% at 10 µM were labelled as ACTIVE)
CCCOC(=O)C(Cc1ccccc1)NC(=O)CN1CCCC(NC(=O)OC(C)(C)C)C1=O (centres unmarked) [COV19185]	0 (compounds with IC50 > 20 μM, percentage inhibition <80% at 20 µM or 50 μM, or percentage enzyme inhibition <50% at 10 µM were labelled as INACTIVE)
O=C(C1=C(O)C(=O)N(c2nc3ccc(Cl)cc3s2)C1c1ccc(O)cc1)c1ccc2c(c1)OCCO2 (centres unmarked) [AD83]	0 (compounds with IC50 > 20 μM, percentage inhibition <80% at 20 µM or 50 μM, or percentage enzyme inhibition <50% at 10 µM were labelled as INACTIVE)

Same assay, conditions: read-out: % activity MPro

SMILES	activity at 25 µM [%]
O=C(O)C(=O)NC1CCc2nc(NC(=O)c3cc(Cl)c(Cl)[nH]3)sc2C1 (centres unmarked) [Cpd 51]	107 ± 5.7

Same assay, conditions: read-out: MPro activity (%)

SMILES	activity at 25 µM [%]
CC(C)(C)OC(=O)NC1CCCN(CC(=O)NC(Cc2ccccc2)C(=O)Nc2nc3cc(Sc4ccccc4)ccc3[nH]2)C1=O (centres unmarked) [3a]	64.9 ± 11.6
Cc1c(C(=O)NCc2ccccc2)[n+]([O-])c2ccccc2[n+]1[O-] [4a]	59.4 ± 3.6
Cc1ccc(S(=O)(=O)/C=C\c2ccc3no[n+]([O-])c3c2)cc1 [19d]	98.6 ± 2.4
O=C(O[C@@H]1Cc2c(O)cc(O)cc2O[C@@H]1c1ccc(O)c(O)c1)c1cc(O)c(O)c(O)c1 [5b, epicatechin gallate]	0
COc1ccc2no[n+]([O-])c2c1 [6d]	85.8 ± 3.5
[O-][n+]1onc2cc(Cl)cc(Cl)c21 [1d]	89.3 ± 1.9
Cc1ccc([S+]([O-])/C=C/c2ccc3no[n+]([O-])c3c2)cc1 (centres unmarked) [11d]	70.6 ± 0.8

Same assay, conditions: read-out: MPro inhibition

SMILES	inhibition at 25 µM [%]
O=S(=O)(Nc1nc2cc(Cl)c(Oc3cccc(Cl)c3Cl)cc2[nH]1)c1ccc(Br)cc1 [32d]	25
O=C1/C(=C/C=C/c2cccs2)CC/C1=C\C=C\c1cccs1 [37d]	20 to 40
